Measured values published in ChEMBL document CHEMBL3124761, “Synthesis and biological evaluation of N,N'-squaramides with high in vivo efficacy and low toxicity: toward a low-cost drug against Chagas disease” (J Med Chem, 2014).
Active and inactive are the calls of the source. The rule behind the calls is not given here.

Experiments:
Trypanosoma cruzi [1] = test: Antitrypanosomal activity against amastigote stage of Trypanosoma cruzi IRHOD/CO/2008/SN3 infected in African green monkey Vero cells assessed as reduction of amastigote number per cell at IC25 preincubated for 12 hrs followed by compound washout measured every 48 hrs for 10 days by Neubauer hemocytometric chamber analysis relative to control; type: functional
Trypanosoma cruzi [2] = test: Trypanocidal activity against metacyclic trypomastigote stage of Trypanosoma cruzi infected in BALB/c albino mouse acute chagas disease model assessed as inhibition of parasitemia at 25 mg/kg, ip administered on day 7 to 12 post-infection measured every 2 days until day 40 […] relative to control; type: functional; settings: route intraperitoneal
Trypanosoma cruzi [3] = test: Trypanocidal activity against blood trypomastigote stage of Trypanosoma cruzi infected in immunosuppressed BALB/c albino mouse chronic chagas disease model assessed as cyclophosphamide-induced reactivation of parasitemia at 40 mg/kg, ip administered on day 7 to 12 post-infection measured after day 150 (reference value: 98.1%); type: functional; settings: route intraperitoneal
Vero = test: Cytotoxicity against African green monkey Vero cells assessed as cell viability after 72 hrs by propidium iodide/fluorescein diacetate staining-based flow cytometric analysis; settings: Chlorocebus sabaeus
Mus musculus [4] = test: Toxicity in BALB/c albino mouse infected with blood trypomastigote stage of Trypanosoma cruzi assessed as increase in uric acid level in serum at 25 mg/kg, ip administered on day 7 to 12 post-infection measured after day 120 relative to control; type: organism-based; set-up: dose 25 mg/kg, route intraperitoneal; settings: in vivo
Mus musculus [5] = test: Toxicity in BALB/c albino mouse infected with blood trypomastigote stage of Trypanosoma cruzi assessed as increase in total bilirubin level in serum at 40 mg/kg, ip administered on day 7 to 12 post-infection measured after day 150 relative to control; type: organism-based; set-up: dose 40 mg/kg, route intraperitoneal; settings: in vivo
Mus musculus [6] = test: Toxicity in BALB/c albino mouse infected with blood trypomastigote stage of Trypanosoma cruzi assessed as decrease in ALT/GPT level in serum at 40 mg/kg, ip administered on day 7 to 12 post-infection measured after day 150 relative to control; type: organism-based; set-up: dose 40 mg/kg, route intraperitoneal; scale not given: the % may be the effect or the level left; settings: in vivo
Trypanosoma cruzi [7] = test: Antitrypanosomal activity against epimastigote stage of Trypanosoma cruzi IRHOD/CO/2008/SN3 assessed as appearance of enormous reservosomes at IC25 after 72 hrs by TEM analysis; type: functional, organism-based
Mus musculus [8] = test: Toxicity in BALB/c albino mouse infected with blood trypomastigote stage of Trypanosoma cruzi assessed as change in creatinephophokinase-MB level in serum at 25 mg/kg, ip administered on day 7 to 12 post-infection measured after day 120 relative to control; type: organism-based; set-up: dose 25 mg/kg, route intraperitoneal; settings: in vivo
Mus musculus [9] = test: Toxicity in BALB/c albino mouse infected with blood trypomastigote stage of Trypanosoma cruzi assessed as increase in LDH level in serum at 25 mg/kg, ip administered on day 7 to 12 post-infection measured after day 120 relative to control; type: organism-based; set-up: dose 25 mg/kg, route intraperitoneal; settings: in vivo
Mus musculus [10] = test: Toxicity in BALB/c albino mouse infected with blood trypomastigote stage of Trypanosoma cruzi assessed as increase in AST/GOT level in serum at 40 mg/kg, ip administered on day 7 to 12 post-infection measured after day 150 relative to control; type: organism-based; set-up: dose 40 mg/kg, route intraperitoneal; settings: in vivo
Trypanosoma cruzi [11] = test: Antitrypanosomal activity against epimastigote stage of Trypanosoma cruzi IRHOD/CO/2008/SN3 assessed as mortality at IC25 after 72 hrs by TEM analysis; type: functional, organism-based
Trypanosoma cruzi [12] = test: (§1) Trypanocidal activity against blood trypomastigote stage of Trypanosoma cruzi infected in immunosuppressed BALB/c albino mouse chronic chagas disease model assessed as increase in total Ig-G level at 40 mg/kg, ip administered on day 7 to 12 post-infection measured after day 150 by ELISA; type: functional, organism-based; set-up: dose 40 mg/kg
Trypanosoma cruzi [13] = test: Antitrypanosomal activity against epimastigote stage of Trypanosoma cruzi IRHOD/CO/2008/SN3 assessed as appearance of swollen structure filled with empty vacuoles at IC25 after 72 hrs by TEM analysis; type: functional, organism-based
Trypanosoma cruzi [14] = test: Antitrypanosomal activity against epimastigote stage of Trypanosoma cruzi IRHOD/CO/2008/SN3 assessed as parasite growth inhibition after 72 hrs by Neubauer hemocytometric chamber analysis; type: functional, organism-based; settings: IRHOD/CO/2008/SN3, 72 h
[15] = Selectivity index, ratio of IC50 for African green monkey Vero cells to IC50 for amastigote stage of Trypanosoma cruzi IRHOD/CO/2008/SN3 infected in African green monkey Vero cells; type: toxicity, cell-based; settings: read-out: Ratio IC50
Trypanosoma cruzi [16] = test: Antitrypanosomal activity against epimastigote stage of Trypanosoma cruzi IRHOD/CO/2008/SN3 assessed as change in excreted succinate level at IC25 after 96 hrs by 1H NMR analysis relative to control; type: functional
Mus musculus [17] = test: Toxicity in BALB/c albino mouse infected with blood trypomastigote stage of Trypanosoma cruzi assessed as change in uric acid level in serum at 40 mg/kg, ip administered on day 7 to 12 post-infection measured after day 150 relative to control; type: organism-based; set-up: dose 40 mg/kg, route intraperitoneal; settings: in vivo
Trypanosoma cruzi [18] = test: Trypanocidal activity against blood trypomastigote stage of Trypanosoma cruzi infected in nonimmunosuppressed BALB/c albino mouse chronic chagas disease model assessed as increase in total Ig-G level at 40 mg/kg, ip administered on day 7 to 12 post-infection measured after day 150 by ELISA; type: functional, organism-based; set-up: dose 40 mg/kg
Trypanosoma cruzi [19] = test: Antitrypanosomal activity against epimastigote stage of Trypanosoma cruzi IRHOD/CO/2008/SN3 assessed as change in excreted acetate level at IC25 after 96 hrs by 1H NMR analysis relative to control; type: functional
Mus musculus [20] = test: Toxicity in BALB/c albino mouse infected with blood trypomastigote stage of Trypanosoma cruzi assessed as increase in AST/GOT level in serum at 25 mg/kg, ip administered on day 7 to 12 post-infection measured after day 120 relative to control; type: organism-based; set-up: dose 25 mg/kg, route intraperitoneal; settings: in vivo
Trypanosoma cruzi [21] = test: Antitrypanosomal activity against epimastigote stage of Trypanosoma cruzi IRHOD/CO/2008/SN3 assessed as change in excreted pyruvate level at IC25 after 96 hrs by 1H NMR analysis relative to control; type: functional
Trypanosoma cruzi [22] = test: as §1, with “decrease” for “increase”, “parasite burden in heart” for “total Ig-G level”, “on” for “after”, “PCR analysis relative to control” for “ELISA”; type: functional; set-up: scale not given: the % may be the effect or the level left; settings: route intraperitoneal
Mus musculus [23] = test: Toxicity in BALB/c albino mouse infected with blood trypomastigote stage of Trypanosoma cruzi assessed as increase in creatinephophokinase-MB level in serum at 500 mg/kg, ip relative to control; type: organism-based; set-up: dose 500 mg/kg, route intraperitoneal; settings: in vivo
Trypanosoma cruzi [24] = test: Antitrypanosomal activity against epimastigote stage of Trypanosoma cruzi IRHOD/CO/2008/SN3 assessed as change in excreted lactate level at IC25 after 96 hrs by 1H NMR analysis relative to control; type: functional
[25] = Selectivity index, ratio of IC50 for African green monkey Vero cells to IC50 for epimastigote stage of Trypanosoma cruzi IRHOD/CO/2008/SN3; type: toxicity, cell-based; settings: read-out: Ratio IC50
Mus musculus [26] = test: Toxicity in BALB/c albino mouse infected with blood trypomastigote stage of Trypanosoma cruzi assessed as change in LDH level in serum at 500 mg/kg, ip relative to control; type: organism-based; set-up: dose 500 mg/kg, route intraperitoneal; settings: in vivo
Mus musculus [27] = test: Toxicity in BALB/c albino mouse infected with blood trypomastigote stage of Trypanosoma cruzi assessed as change in uric acid level in serum at 500 mg/kg, ip; type: organism-based; set-up: dose 500 mg/kg, route intraperitoneal; settings: in vivo
Trypanosoma cruzi [28] = test: Antitrypanosomal activity against amastigote stage of Trypanosoma cruzi IRHOD/CO/2008/SN3 infected in African green monkey Vero cells assessed as parasite growth inhibition after 72 hrs by Giemsa staining-based microscopic analysis; type: functional, organism-based; settings: IRHOD/CO/2008/SN3, Vero
Mus musculus [29] = test: Toxicity in BALB/c albino mouse infected with blood trypomastigote stage of Trypanosoma cruzi assessed as increase in total bilirubin level in serum at 500 mg/kg, ip relative to control; type: organism-based; set-up: dose 500 mg/kg, route intraperitoneal; settings: in vivo
Mus musculus [30] = test: Toxicity in BALB/c albino mouse infected with blood trypomastigote stage of Trypanosoma cruzi assessed as increase in alkaline phosphatase level in serum at 500 mg/kg, ip relative to control; type: organism-based; set-up: dose 500 mg/kg, route intraperitoneal; settings: in vivo

CCCCNc1c(N(C)CCCN(C)C)c(=O)c1=O
inhibition (INH) (Trypanosoma cruzi [1]): 52% | inhibition in vivo at 25 mg/kg (Trypanosoma cruzi [2]): 67% | Activity (Trypanosoma cruzi [3]): 3.1% | IC50 (Vero): 453 µM | Activity (Mus musculus [4]): 30% | Activity (Mus musculus [5]): 30% | Activity (Mus musculus [6]): 10% | Activity (Trypanosoma cruzi [7]): Active | Activity (Mus musculus [8]): < 10% | Activity (Mus musculus [9]): 10% | Activity (Mus musculus [10]): 10% | Activity (Trypanosoma cruzi [11]): Active | Activity (Trypanosoma cruzi [12]): Active | Activity (Trypanosoma cruzi [13]): Active | IC50 (Trypanosoma cruzi [14]): 9.4 µM | selectivity ratio [15]: 53.3 | Activity (Trypanosoma cruzi [16]): -26.9% | Activity (Mus musculus [17]): < 10% | Activity (Trypanosoma cruzi [18]): Active | Activity (Trypanosoma cruzi [19]): -18.6% | Activity (Mus musculus [20]): 10% | Activity (Trypanosoma cruzi [21]): 81.5% | Activity (Trypanosoma cruzi [22]): 83.3% | Activity (Mus musculus [23]): > 50% | Activity (Trypanosoma cruzi [24]): -28.3% | selectivity ratio [25]: 48.2 | Activity (Mus musculus [26]): < 10% | Activity (Mus musculus [27]): < 10% | IC50 (Trypanosoma cruzi [28]): 8.5 µM | Activity (Mus musculus [29]): 40% | Activity (Mus musculus [30]): > 50%
